According to PMC11195807, “Development of a multi-targeted chemotherapeutic approach based on G-quadruplex stabilisation and carbonic anhydrase inhibition” (Journal of Enzyme Inhibition and Medicinal Chemistry, 2024):

What was measured:
hCA I = target: T1, hCA I (Homo sapiens, UniProt P00915); assay: stopped-flow CO2 hydrase assay, hCA I; format: biochemical
T1 construct: made in house
Protocol: (§1) An Applied Photophysics stopped-flow instrument has been used for assaying the CA-catalysed CO2 hydration activity, as reported earlier. The enzyme concentrations were in the range 5–12 nM. All hCA isoforms were recombinant proteins, being obtained in-house as reported earlier.

hCA II = target: T2, hCA II (Homo sapiens, UniProt P00918); assay: stopped-flow CO2 hydrase assay, hCA II; format: biochemical
T2 construct: made in house
Source text: . The structure-activity relationship is discussed separately for the two compound subsets. Another code pattern is included for the MTDLs in Table 1, which indicates the derivative CAI type (sulphonamide, S or coumarin, C) and the number of atoms in the spacers connecting either berberine and the triazole (carbon atoms) or the triazole and the benzenesulfonamide/coumarin scaffolds (carbon or oxygen atoms).
as §1

hCA IX = target: T3, hCA IX (Homo sapiens, UniProt Q16790); assay: stopped-flow CO2 hydrase assay, hCA IX; format: biochemical; details: for Selectivity index (SI) I/IX: hCA IX over hCA I; for Selectivity index (SI) II/IX: hCA IX over hCA II; for Ki: mean ± SEM of three assays
T3 construct: made in house
Source text: (§2) An Applied Photophysics stopped-flow instrument has been used for assaying the CA-catalysed CO2 hydration activity, as reported earlier. […] All hCA isoforms were recombinant proteins, being obtained in-house as reported earlier.

hCA XII = target: T4, hCA XII (Homo sapiens, UniProt O43570); assay: stopped-flow CO2 hydrase assay, hCA XII; format: biochemical; details: for Selectivity index (SI) I/XII: hCA XII over hCA I; for Selectivity index (SI) II/XII: hCA XII over hCA II; for Ki: mean ± SEM of three assays
T4 construct: made in house
Source text: as §2

Tel23 = assay: CD melting experiments, Tel23 GQ; format: binding, human; details: for ΔT1/2 Tel23: 2 molar equiv compound, T1/2 of DNA alone 53.5 °C; for ΔΔT1/2 Tel23: ΔT1/2 of compound minus ΔT1/2 of berberine, 2 molar equiv
Source text: (§3) The 21 synthesised MTDLs were screened for their ability to bind to and stabilise DNA GQ-forming sequences, compared to berberine, by CD experiments. Indeed, circular dichroism has shown to be outstandingly useful and informative for noncanonical nucleic acid secondary structures. For this purpose, a G-rich 23-nucleotide truncation (23-nt) of the human telomeric sequence (Tel23) and two G-rich motifs from the promoter regions of c-KIT (c-Kit1) and c-MYC (c-Myc) oncogenes were employed. First, the overall topology adopted by each DNA sequence in K^+-containing buffer was verified by CD spectra. […] GQ conformation (Figure S1, Supporting Information). On the other hand, c-Kit1 and c-Myc sequences adopted a parallel GQ conformation, showing a distinctive positive band at around 260 nm and a negative one at ∼240 nm in their CD spectra (Figures S2 and S3, Supporting Information).
(§4) Afterwards, the GQ-stabilising properties of the molecules were assessed by CD melting experiments, measuring the differences in the apparent melting temperatures of the DNA in the presence and absence of compounds (ΔT1/2) (Figures S4–S6 and Table S2, Supporting Information). […] This could be explained by considering the higher accessibility of the external G-tetrads in the case of parallel GQs compared to the hybrid one[52], which would allow the additional CAI moiety of conjugated compounds to be better accommodated in the binding site. […] . […] .

c-Kit1 = assay: CD melting experiments, c-Kit1 GQ; format: binding; details: for ΔT1/2 c-Kit1: 2 molar equiv compound, T1/2 of DNA alone 55.0 °C; for ΔΔT1/2 c-Kit1: ΔT1/2 of compound minus ΔT1/2 of berberine, 2 molar equiv
Source text: as §3, §4

c-Myc = assay: CD melting experiments, c-Myc GQ; format: binding; details: for ΔΔT1/2 c-Myc: ΔT1/2 of compound minus ΔT1/2 of berberine, 1 molar equiv; for ΔT1/2 c-Myc: 1 molar equiv compound, T1/2 of DNA alone 70.0 °C
Source text: as §3, §4

Hairpin = assay: CD melting experiments, hairpin DNA duplex; details: 2 molar equiv compound, T1/2 of DNA alone 66.0 °C
[1] = sulphonamides, inhibitor-enzyme incubation 15 min, mean ± SEM of three assays
[2] = sulphonamides, inhibitor-enzyme incubation 15 min
[3] = coumarins, inhibitor-enzyme incubation 6 h

T1 sequence (P00915 whole entry): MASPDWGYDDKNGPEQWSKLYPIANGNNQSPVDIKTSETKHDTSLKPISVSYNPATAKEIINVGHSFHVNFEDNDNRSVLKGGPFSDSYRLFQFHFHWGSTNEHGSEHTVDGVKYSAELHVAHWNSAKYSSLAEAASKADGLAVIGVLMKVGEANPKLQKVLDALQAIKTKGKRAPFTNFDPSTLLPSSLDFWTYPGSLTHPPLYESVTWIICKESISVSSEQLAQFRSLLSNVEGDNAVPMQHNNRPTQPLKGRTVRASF
T4 sequence (O43570 25-354): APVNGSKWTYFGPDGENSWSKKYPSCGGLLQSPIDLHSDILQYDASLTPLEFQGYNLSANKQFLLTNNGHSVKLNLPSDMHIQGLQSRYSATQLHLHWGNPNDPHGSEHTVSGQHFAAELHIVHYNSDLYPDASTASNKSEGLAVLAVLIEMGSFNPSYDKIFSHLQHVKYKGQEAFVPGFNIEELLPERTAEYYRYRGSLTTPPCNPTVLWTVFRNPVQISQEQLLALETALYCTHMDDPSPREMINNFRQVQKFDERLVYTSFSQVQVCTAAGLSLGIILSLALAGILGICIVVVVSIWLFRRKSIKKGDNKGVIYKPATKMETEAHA

Row | Ki (hCA I; [1]) | Ki (hCA II; [1]) | Selectivity index (SI) I/IX (hCA IX) | Selectivity index (SI) II/IX (hCA IX) | Ki (hCA IX; [2]) | Selectivity index (SI) I/XII (hCA XII) | Selectivity index (SI) II/XII (hCA XII) | Ki (hCA XII; [2]) | Ki (hCA I; [3]) | Ki (hCA II; [3]) | Ki (hCA IX; [3]) | Ki (hCA XII; [3]) | SMILES | ΔT1/2 Tel23 (Tel23) | ΔΔT1/2 Tel23 (Tel23) | ΔT1/2 c-Kit1 (c-Kit1) | ΔΔT1/2 c-Kit1 (c-Kit1) | ΔΔT1/2 c-Myc (c-Myc) | ΔT1/2 Hairpin (Hairpin) | ΔT1/2 c-Myc (c-Myc) | further results
1 | 3.67 ± 0.022 µM | 0.0901 ± 0.0056 µM | 941.1 | 23.1 | 0.0039 ± 0.0002 µM | 148.0 | 3.6 | 0.0248 ± 0.0013 µM |  |  |  |  | COc1ccc2cc3[n+](cc2c1OCc1cn(-c2cccc(S(N)(=O)=O)c2)nn1)CCc1cc2c(cc1-3)OCO2 [Compound 40, 10-Methoxy-9-((1–(3-sulfamoylphenyl)-1H-1,2,3-triazol-4-yl)methoxy)-5,6-dihydro-[1,3]dioxolo[4,5-g]isoquinolino[3,2-a]isoquinolin-7-ium hexafluorophosphate] | 5.5 °C | −4.0 °C | 16.0 °C | 3.0 °C | >13.0 °C | +0.2 °C |  | ΔΔT1/2 c-Myc (c-Myc; listed as S-1,0m): > 13.0 °C
2 | 0.872 ± 0.0559 µM | 0.0668 ± 0.0039 µM | 1194 | 91.5 | 0.00073 ± 4e-05 µM | 62.3 | 4.8 | 0.014 ± 0.001 µM |  |  |  |  | COc1ccc2cc3[n+](cc2c1OCCCn1cc(-c2ccc(S(N)(=O)=O)cc2)nn1)CCc1cc2c(cc1-3)OCO2 [Compound 28, 10-Methoxy-9–(3-(4–(4-sulfamoylphenyl)-1H-1,2,3-triazol-1-yl)propoxy)-5,6-dihydro-[1,3]dioxolo[4,5-g]isoquinolino[3,2-a]isoquinolin-7-ium hexafluorophosphate] | 6.0 °C | −3.5 °C | 16.5 °C | 3.5 °C | >13.0 °C | -2.0 °C |  | ΔΔT1/2 c-Myc (c-Myc; listed as S-3,0): > 13.0 °C
3 | 0.829 ± 0.0503 µM | 0.0229 ± 0.0014 µM | 307.1 | 8.5 | 0.0027 ± 0.0002 µM | 135.9 | 3.8 | 0.0061 ± 0.0003 µM |  |  |  |  | COc1ccc2cc3[n+](cc2c1OCc1cn(-c2ccc(S(N)(=O)=O)cc2)nn1)CCc1cc2c(cc1-3)OCO2 [Compound 41, 10-Methoxy-9-((1–(4-sulfamoylphenyl)-1H-1,2,3-triazol-4-yl)methoxy)-5,6-dihydro-[1,3]dioxolo[4,5-g]isoquinolino[3,2-a]isoquinolin-7-ium hexafluorophosphate] | 5.5 °C | −4.0 °C | 15.0 °C | 2.0 °C | 2.5 °C | +2.5 °C | 14.5 °C | 

The next lines start with the compound.

Row | SMILES | Ki (hCA I; [1]) | Ki (hCA II; [1]) | Selectivity index (SI) I/IX (hCA IX) | Selectivity index (SI) II/IX (hCA IX) | Ki (hCA IX; [2]) | Selectivity index (SI) I/XII (hCA XII) | Selectivity index (SI) II/XII (hCA XII) | Ki (hCA XII; [2]) | Ki (hCA I; [3]) | Ki (hCA II; [3]) | Ki (hCA IX; [3]) | Ki (hCA XII; [3]) | ΔT1/2 Tel23 (Tel23) | ΔΔT1/2 Tel23 (Tel23) | ΔT1/2 c-Kit1 (c-Kit1) | ΔΔT1/2 c-Kit1 (c-Kit1) | ΔΔT1/2 c-Myc (c-Myc) | ΔT1/2 Hairpin (Hairpin) | ΔT1/2 c-Myc (c-Myc) | further results
4 | COc1ccc2cc3[n+](cc2c1OCCCCn1cc(COc2ccc(S(N)(=O)=O)cc2)nn1)CCc1cc2c(cc1-3)OCO2 [Compound 31, 10-Methoxy-9–(4-(4-((4-sulfamoylphenoxy)methyl)-1H-1,2,3-triazol-1-yl)butoxy)-5,6-dihydro-[1,3]dioxolo[4,5-g]isoquinolino[3,2-a]isoquinolin-7-ium hexafluorophosphate] | 0.916 ± 0.0579 µM | 0.0715 ± 0.0053 µM | 1308 | 102.1 | 0.00071 ± 4e-05 µM | 127.2 | 9.9 | 0.0072 ± 0.0005 µM |  |  |  |  | 8.0 °C | −1.5 °C | 15.5 °C | 2.5 °C | 1.0 °C | +0.2 °C | 13.0 °C | 
5 | COc1ccc2cc3[n+](cc2c1OCCCn1cc(CCCOc2ccc4ccc(=O)oc4c2)nn1)CCc1cc2c(cc1-3)OCO2 [Compound 36, 10-Methoxy-9–(3-(4–(3-((2-oxo-2H-chromen-7-yl)oxy)propyl)-1H-1,2,3-triazol-1-yl)propoxy)-5,6-dihydro-[1,3]dioxolo[4,5-g]isoquinolino[3,2-a]isoquinolin-7-ium hexafluorophosphate] |  |  | > 169.8 | > 169.8 |  | > 352.1 | > 352.1 |  | > 100 µM | > 100 µM | 0.0589 ± 0.0039 µM | 0.0284 ± 0.0017 µM | 12.5 °C | 3.0 °C | 17.0 °C | 4.0 °C | 3.0 °C | +0.5 °C | 15.0 °C | 
6 | COc1ccc2cc3[n+](cc2c1OCc1cn(CCCCCOc2ccc4ccc(=O)oc4c2)nn1)CCc1cc2c(cc1-3)OCO2 [Compound 44, 10-Methoxy-9-((1–(5-((2-oxo-2H-chromen-7-yl)oxy)pentyl)-1H-1,2,3-triazol-4-yl)methoxy)-5,6-dihydro-[1,3]dioxolo[4,5-g]isoquinolino[3,2-a]isoquinolin-7-ium hexafluorophosphate] |  |  | > 1041 | > 1041 |  | > 689.7 | > 689.7 |  | > 100 µM | > 100 µM | 0.0096 ± 0.0005 µM | 0.0145 ± 0.0009 µM | 7.5 °C | −2.0 °C | 17.5 °C | 4.5 °C | >13.0 °C | +1.0 °C |  | ΔΔT1/2 c-Myc (c-Myc; listed as C-1,6): > 13.0 °C
7 | COc1ccc2cc3[n+](cc2c1OCc1cn(CCCCOc2ccc4ccc(=O)oc4c2)nn1)CCc1cc2c(cc1-3)OCO2 [Compound 43, 10-Methoxy-9-((1–(4-((2-oxo-2H-chromen-7-yl)oxy)butyl)-1H-1,2,3-triazol-4-yl)methoxy)-5,6-dihydro-[1,3]dioxolo[4,5-g]isoquinolino[3,2-a]isoquinolin-7-ium hexafluorophosphate] |  |  | > 392.2 | > 392.2 |  | > 2381 | > 2381 |  | > 100 µM | > 100 µM | 0.0255 ± 0.0015 µM | 0.0042 ± 0.0003 µM | 7.0 °C | −2.5 °C | 16.5 °C | 3.5 °C | 2.0 °C | -0.5 °C | 14.0 °C | 
8 | COc1ccc2cc3[n+](cc2c1OCCCn1cc(CCOc2ccc4ccc(=O)oc4c2)nn1)CCc1cc2c(cc1-3)OCO2 [Compound 35, 10-Methoxy-9–(3-(4–(2-((2-oxo-2H-chromen-7-yl)oxy)ethyl)-1H-1,2,3-triazol-1-yl)propoxy)-5,6-dihydro-[1,3]dioxolo[4,5-g]isoquinolino[3,2-a]isoquinolin-7-ium hexafluorophosphate] |  |  | > 289.9 | > 289.9 |  | > 529.1 | > 529.1 |  | > 100 µM | > 100 µM | 0.0345 ± 0.0024 µM | 0.0189 ± 0.0009 µM | 8.0 °C | −1.5 °C | 18.5 °C | 5.5 °C | 6.5 °C | +2.0 °C | 18.5 °C | 
